Measured values reported in patent US20110124724A1, “USE OF DRONEDARONE OR A PHARMACEUTICALLY ACCEPTABLE SALT THEREOF, FOR THE PREPARATION OF A MEDICAMENT FOR REGULATING THE POTASIUM LEVEL IN THE BLOOD” (SANOFI-AVENTIS, priority 2008, published 2011).
Where a name gives a salt, the structure may show the parent alone.

Test: Prospective, multinational, multicentre, double-blind, placebo-controlled clinical study in patients with a history of atrial fibrillation or atrial flutter
Type: in vivo
Description: The patients had to have a history of atrial fibrillation or flutter and/or could be in normal sinus rhythm or in atrial fibrillation or flutter at inclusion.
The patient recruitment was carried out by taking into account the following inclusion criteria:
Inclusion Criteria: • 1) One of the following risk factors had to be present: • age equal to or above 70, or even above 75, possibly combined with at least one of the risk factors below: • hypertension (taking antihypertensives of at least two different classes), • diabetes, • history of cerebral stroke (transient ischemic event or completed cerebral stroke) or of systemic embolism, • left atrial diameter greater than or equal to 50 mm measured by echocardiography, • left ventricular ejection fraction less than 40%, measured by two-dimensional echography; • 2) availability of an electrocardiogram carried out during the past 6 months in order to document the presence or the history of atrial fibrillation or flutter; • 3) availability of an electrocardiogram carried out during the past 6 months in order to document the presence or absence of normal sinus rhythm.
Treatment was initiated using tablets containing either the placebo or an amount of dronedarone hydrochloride corresponding to 400 mg of dronedarone at a rate of one tablet in the morning during or shortly after breakfast and one tablet in the evening during or shortly after dinner.
The anticipated duration of the treatment was variable according to the time at which each patient was included in the study, and could range from a minimum of 12 months for the last patient included up to a maximum corresponding to the entire duration of the study (12 months+duration of inclusion), i.e. approximately 30 months for the first patients included.
The potassium concentration-modulating effect is clearly documented in the study by virtue of the results of analyses of regular blood samples taken throughout the duration of the study in the context of the monitoring of vital parameters.
The variations in potassium (in mmol/l) between the first and the last administration of the medicament of the study are included in FIG. 1, in which B signifies basal level, D signifies day and M signifies month.
The number of patients with hypokalaemia was compared using Fischer's exact test. Hypokalaemia is defined as a concentration in potassium ion [K+] below 3 mmol/L.

[1] = among 2255 treated patients with a potassium measurement, from randomization until last administration

Row | Structure (SMILES) | change in blood potassium level (analysis of covariance, taking into account the starting value) (compared to placebo, after the 24th month, 400 mg dronedarone twice daily, p<0.0001) | reduction in the risk of sudden death (hypertensive patients) [%] | reduction in the risk of sudden death compared with the placebo (patients not taking diuretics) [%] | reduction in the risk of sudden death compared with the placebo (patients on diuretics) [%] | reduction in the risk of sudden death (patients who were not hypertensive) [%] | number of patients with hypokalaemia ([K+] below 3 mmol/L) [1] [patients] | proportion of patients with hypokalaemia ([K+] below 3 mmol/L) [1] [%]
1 | CCCCc1oc2ccc(NS(C)(=O)=O)cc2c1C(=O)c1ccc(OCCCN(CCCC)CCCC)cc1 [dronedarone, 2-n-Butyl-3-[4-(3-di-n-butylaminopropoxy)benzoyl]-5-methylsulphonamidobenzofuran] | significant difference in favour of dronedarone | 62 | 34 | 70.4 | 45.5 |  | 
2 | CCCCc1oc2ccc(NS(C)(=O)=O)cc2c1C(=O)c1ccc(OCCCN(CCCC)CCCC)cc1 [dronedarone hydrochloride] |  |  |  |  |  | 14 | 0.6
